From PMC11157491, “Novel Alaninamide Derivatives with Drug-like Potential for Development as Antiseizure and Antinociceptive Therapies—In Vitro and In Vivo Characterization” (ACS Chemical Neuroscience, 2024)

Legend:
NMDA = NMDA binding (antagonist radioligand); details: 100 μM, rat cerebral cortex
Protocol: (§1) Binding/functional studies were carried out commercially in Eurofins Laboratories (Poitiers, France) and Eurofins Panlabs Discovery Services Taiwan, Ltd. (New Taipei City, Taiwan) using testing procedures that were reported previously (for details, see Table S2).
Table S2. Radioligand binding and functional assays.
NMDA (antagonist radioligand) […]
(§2) Potassium channel (hERG) […]
(§3) Assays were performed commercially in Eurofins Laboratories ( Poitiers, France) or Eurofins Panlabs Discovery Services
(§4) Taiwan, Ltd. (New Taipei City, Taiwan).

hERG potassium channel = target: T1, hERG potassium channel (Homo sapiens, UniProt Q12809); test: hERG potassium channel binding; details: HEK-293 cells expressing human recombinant hERG, human recombinant HEK-293 cell, read-out: % inhibition of control specific binding
T1 construct: Eurofins (contract assay)
Text: Moreover, we also evaluated its influence on the potassium channel (hERG), which is known to be one of the most critical “off-targets” responsible for the harmful proarrhythmic activity of drugs and drug candidates.[56] […] The latter result is particularly important, since it minimizes the risk of potential proarrhythmic activity of 28. Despite this positive result, more detailed off-target profiling is undoubtedly necessary in the next steps of preclinical development.
as §1
(§5) Table S2. Radioligand binding and functional assays. […]
as §2, §3, §4

mice [1] = test: Capsaicin-induced pain; format: in vivo; details: Mus musculus, ip, 30 min before capsaicin
Protocol: The experimental groups consisted of 10 adult male Albino Swiss mice (CD-1, 18–25 g). Each animal was tested only once. Immediately after the assay, the animals were sacrificed by cervical dislocation. Behavioral measurements were observed by trained observers. The in vivo antinociceptive assays were in accordance with Polish regulations and the European Union Directive of 22 Sept 2010 (2010/63/EU). All procedures were carried out according to the rules of the International Council on Laboratory Animal Science (ICLAS) and were approved by the Local Ethics Committee in Cracow, Poland (104/2015, 279/2019, and 614/2022). The tested substances were suspended in a 1% aqueous solution of Tween 80 and were injected i.p. 30 min prior to the test. […] The in vivo procedure for the model of capsaicin-induced nociception was previously reported;[67] the animals were pretreated with vehicle (10 mL/kg, negative control), and the dose–response of investigated compounds was evaluated at 12.5, 25, and 50 mg/kg.
Data are presented as means ± standard error of the mean (SEM). […] Statistically significant differences between groups were calculated using one-way analysis of variance (ANOVA) and the post hoc Dunnett’s multiple comparison test or two-way analysis of variance (ANOVA). […]

AMPA = AMPA binding (agonist radioligand); details: 100 μM, rat cerebral cortex
Protocol: as §1, §5
AMPA (agonist radioligand) […]
as §2, §3, §4

mature BDNF (mBDNF) = test: mBDNF and proNGF expression in hippocampus and cortex of PTZ-kindled mice (western blot); format: in vivo; details: PTZ-kindled animals, prolonged treatment
Protocol: In addition, we determined the expression of the nerve growth factor (NGF), which can also be implicated in kindling progression, by enhancing mossy fiber sprouting.[40] However, no changes in the NGF protein expression in the hippocampus and cortex of kindled animals were found (Figure 5C,D).
The expression of mBDNF and proNGF in the mouse hippocampus and cortex was evaluated by the western blot technique. Half of mouse brain structures, cortex and hippocampus, were weighted and homogenized at the ratio of 9 μL/mg in 2% sodium dodecyl sulfate (SDS) supplemented with a cocktail of protease (Thermo Scientific) and phosphatese inhibitors (Sigma-Aldrich) using a bead homogenizer (Bead Ruptor Elite, Omni International). Then, the samples were denatured at 95 °C for 10 min and centrifuged at 10,000g for 10 min at 4 °C. The total protein concentration in the obtained supernatants was determined using a PierceTM BCA Protein Assay Kit (Thermo Scientific, Waltham, MA). After setting the proper protein concentration, the samples were mixed with loading buffer (containing 10% 2-mercaptoethanol) at a ratio of 3:1 and heated for 10 min at 95 °C. Equal amounts of the protein (45 μg/lane) were loaded on Any kD precast polyacrylamide gels (Criterion, TGX Stain-Free gel, Bio-Rad, Hercules, CA) and subjected to electrophoresis (170 V, 60 min). Separated proteins were transferred to the polyvinylidene difluoride (PVDF) membrane (Bio-Rad, Hercules, CA) and were blocked in a 5% solution of albumin in TBST. […] The proteins were detected using the electrochemiluminescence (ECL) method (Western Bright Quantum, Advansta Inc., San Jose, CA). The chemiluminescence of the membranes was imaged with the G-Box Imaging System (Syngene, Frederick, MD), and the protein expression was analyzed with Gene Tools software (Syngene, Frederick, MD) and expressed as relative to the total protein content in the membrane lane.
Changes in the relative expression of tested proteins were analyzed using one-way ANOVA with Tukey’s post hoc test.

GABA transaminase = target: T2, GABA transaminase (Rattus norvegicus, UniProt P50554); test: GABA transaminase assay; format: biochemical; details: rat brain, read-out: % inhibition of control specific binding
T2 construct: Eurofins (contract assay)
Protocol: as §1, §5, §2, §3, §4

mice [2] = test: Oxaliplatin (OXPT)-induced peripheral neuropathy, von Frey test; format: in vivo
Protocol: The method is based on measuring the mean force that caused the paw withdrawal reaction, i.e., pain threshold. […] In the group treated with 28 at a dose of 25 mg/kg (Figure 6C), the initial value of 5.84 ± 0.43 (baseline) was decreased to the value of 2.78 ± 0.34 (47.6% of the baseline) and 3.39 ± 0.36 (58.0% of the baseline) in the early and late phases, respectively. […] In the group treated with the test compound at a dose of 75 mg/kg, the initial value of 6.17 ± 0.56 decreased to the values of 2.93 ± 0.45 (47.5% of the baseline) and 3.61 ± 0.28 (58.5% of the baseline) in the early and late phases, respectively.
The experimental groups consisted of 10 adult male Albino Swiss mice (CD-1, 18–25 g). Each animal was tested only once. Immediately after the assay, the animals were sacrificed by cervical dislocation. Behavioral measurements were observed by trained observers. The in vivo antinociceptive assays were in accordance with Polish regulations and the European Union Directive of 22 Sept 2010 (2010/63/EU). All procedures were carried out according to the rules of the International Council on Laboratory Animal Science (ICLAS) and were approved by the Local Ethics Committee in Cracow, Poland (104/2015, 279/2019, and 614/2022). The tested substances were suspended in a 1% aqueous solution of Tween 80 and were injected i.p. 30 min prior to the test. Control group animals (negative control) were administered with an appropriate amount of vehicle (Tween 80, 1% aqueous solution, i.p.) 30 min prior to the test. […] Before formalin application, different groups of animals were injected i.p. with vehicle (10 mL/kg, negative control). The in vivo procedure for the model of capsaicin-induced nociception was previously reported;[67] the animals were pretreated with vehicle (10 mL/kg, negative control), and the dose–response of investigated compounds was evaluated at 12.5, 25, and 50 mg/kg.
Data are presented as means ± standard error of the mean (SEM). GraphPad Prism Software (v.5) was used to analyze the vast majority of data. Statistically significant differences between groups were calculated using one-way analysis of variance (ANOVA) and the post hoc Dunnett’s multiple comparison test or two-way analysis of variance (ANOVA). The criterion for significance was set at p < 0.05. The log-probit method was applied to statistically determine the ED50 values with 95% confidence limits.

T1 sequence (Q12809 whole entry): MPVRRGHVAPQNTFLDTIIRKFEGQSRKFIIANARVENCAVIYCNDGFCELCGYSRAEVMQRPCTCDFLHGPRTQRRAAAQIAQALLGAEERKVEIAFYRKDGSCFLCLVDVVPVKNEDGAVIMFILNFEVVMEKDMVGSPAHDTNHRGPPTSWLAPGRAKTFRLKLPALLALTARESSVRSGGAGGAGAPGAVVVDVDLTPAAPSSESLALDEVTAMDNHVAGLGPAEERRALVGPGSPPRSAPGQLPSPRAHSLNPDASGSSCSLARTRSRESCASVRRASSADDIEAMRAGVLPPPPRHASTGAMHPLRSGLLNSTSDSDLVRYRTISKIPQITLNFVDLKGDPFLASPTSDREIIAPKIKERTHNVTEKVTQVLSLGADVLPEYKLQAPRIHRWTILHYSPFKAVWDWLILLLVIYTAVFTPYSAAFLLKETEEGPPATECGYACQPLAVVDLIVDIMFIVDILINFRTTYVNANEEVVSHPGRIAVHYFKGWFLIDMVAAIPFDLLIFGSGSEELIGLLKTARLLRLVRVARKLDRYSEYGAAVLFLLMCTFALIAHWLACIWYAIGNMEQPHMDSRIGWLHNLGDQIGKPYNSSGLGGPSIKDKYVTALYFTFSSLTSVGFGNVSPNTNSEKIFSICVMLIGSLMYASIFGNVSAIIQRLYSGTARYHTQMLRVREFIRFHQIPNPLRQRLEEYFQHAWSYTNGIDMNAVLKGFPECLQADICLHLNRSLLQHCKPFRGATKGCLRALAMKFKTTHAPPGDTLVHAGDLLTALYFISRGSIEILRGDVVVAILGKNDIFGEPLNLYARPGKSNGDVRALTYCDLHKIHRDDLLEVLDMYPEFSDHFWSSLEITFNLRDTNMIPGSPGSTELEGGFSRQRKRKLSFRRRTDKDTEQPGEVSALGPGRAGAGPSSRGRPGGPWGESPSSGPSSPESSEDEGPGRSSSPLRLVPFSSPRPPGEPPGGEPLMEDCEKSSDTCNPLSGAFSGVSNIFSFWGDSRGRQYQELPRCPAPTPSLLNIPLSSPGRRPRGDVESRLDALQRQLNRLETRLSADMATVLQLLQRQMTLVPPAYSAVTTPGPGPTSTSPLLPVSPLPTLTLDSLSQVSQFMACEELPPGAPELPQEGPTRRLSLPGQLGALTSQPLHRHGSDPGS
T2 sequence (P50554 28-500): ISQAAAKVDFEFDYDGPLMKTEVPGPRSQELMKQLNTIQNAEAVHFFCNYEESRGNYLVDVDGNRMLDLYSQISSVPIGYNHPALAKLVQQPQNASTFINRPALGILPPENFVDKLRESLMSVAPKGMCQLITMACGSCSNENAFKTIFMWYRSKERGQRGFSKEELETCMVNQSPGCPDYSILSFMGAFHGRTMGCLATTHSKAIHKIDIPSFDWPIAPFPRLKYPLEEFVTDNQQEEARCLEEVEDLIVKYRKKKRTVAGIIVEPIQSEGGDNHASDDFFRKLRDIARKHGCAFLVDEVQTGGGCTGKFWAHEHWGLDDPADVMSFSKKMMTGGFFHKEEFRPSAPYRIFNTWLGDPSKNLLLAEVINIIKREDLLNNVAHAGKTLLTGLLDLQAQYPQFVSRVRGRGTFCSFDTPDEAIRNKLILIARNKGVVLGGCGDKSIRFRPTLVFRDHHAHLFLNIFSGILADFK

Question: `CC(=O)NC(C)C(=O)N1CCN(c2cccc(OC(F)(F)F)c2)CC1` (stereo not drawn) [Compound 28, N-(1-oxo-1-(4-(3-(Trifluoromethoxy)phenyl)piperazin-1-yl)propan-2-yl)acetamide] was tested. Which “% inhibition of control specific binding” value (NMDA) did it give?
Answer: 5.0%

Question: What about the inhibition at 100 µM (hERG potassium channel) of the same molecule?
Answer: 12.9%

Question: What about the ED50 (mice [1]) of the same molecule?
Answer: 27.5 mg/kg

Question: What about the “% inhibition of control specific binding” value (AMPA) of the same molecule?
Answer: –21.0%

Question: And the “mBDNF expression in the cortex” value (mature BDNF (mBDNF))?
Answer: decreased the expression of mBDNF

Question: What about the “mBDNF expression in the hippocampus” value (mature BDNF (mBDNF)) of the same molecule?
Answer: not in the hippocampus

Question: What about the inhibition at 100 µM (GABA transaminase) of the same molecule?
Answer: -1.9%

Question: And the “pain threshold after compound, % of the baseline” value (from here on “pain threshold after compound, %”) (mice [2]; 25 mg/kg, early phase (3 h after OXPT))?
Answer: 99.5%

Question: What about the “pain threshold after compound, %” value (mice [2]; 50 mg/kg, early phase (3 h after OXPT)) of the same molecule?
Answer: 85.4%

Question: And the “pain threshold after compound, %” value (mice [2]; 50 mg/kg, late phase (7 days after OXPT))?
Answer: 104.8%

Question: And the “pain threshold after compound, %” value (mice [2]; 75 mg/kg, early phase (3 h after OXPT))?
Answer: 121.5%

Question: And the “pain threshold after compound, %” value (mice [2]; 75 mg/kg, late phase (7 days after OXPT))?
Answer: 91.3%
